Measured values published in the supplement of paper PMC10307832.

What was measured:
Assay in all cases: relative viability (nuclei count vs DMSO), 5 days (fraction); higher = more cells survive
[1] = compound: C=CC(=O)Nc1cc(-n2c(=O)ccc3cnc4ccc(-c5ccc(NS(C)(=O)=O)cc5)cc4c32)ccc1C [BMX-IN-1] + CC(C)C[C@H](NC(=O)[C@H](Cc1ccccc1)NC(=O)c1cnccn1)B(O)O [Bortezomib] (partner 0.002 µM)
How it was run: (§1)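 Lung cancer cell lines were seeded in 1536-well plates and dosed by pin tool the next day, with either a single drug or a fixed anchor-drug dose combined with five library-drug doses (not always all listed) spaced in √10 steps. Five days later, one step fixed the cells and stained their nuclei (final 0.05% Triton X-100, 1% formaldehyde, 1 ug/ml Hoechst), and nuclei were counted on 4× images. Relative viability is the nuclei count in treated wells divided by the count in vehicle wells, and each value is the median of duplicate plates.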

[2] = compound: C=CC(=O)N1CCC[C@@H](n2nc(-c3ccc(Oc4ccccc4)cc3)c3c(N)ncnc32)C1 [Ibrutinib] + N=C(N)NC(=N)NCCc1ccccc1 [Phenformin] (partner 250 µM)
How it was run: as §1

[3] = compound: C=CCc1cccc(/C=N/NC(=O)CN2CCN(Cc3ccccc3)CC2)c1O [PAC-1] + Nc1nc2[nH]cc(CCc3ccc(C(=O)N[C@@H](CCC(=O)O)C(=O)O)cc3)c2c(=O)[nH]1 [Pemetrexed] (partner 0.2 µM)
How it was run: as §1

[4] = compound: C=CC(=O)N1CCC[C@@H](n2nc(-c3ccc(Oc4ccccc4)cc3)c3c(N)ncnc32)C1 [Ibrutinib] + COc1cccc2cc(-c3nc([C@H]4CC[C@H](C(=O)O)CC4)n4ncnc(N)c34)[nH]c12 [OSI-027] (partner 0.5 µM)
How it was run: as §1

| Cell Line | relative viability ([1]; first compound 0.02 µM) | relative viability ([1]; first compound 0.2 µM) | relative viability ([1]; first compound 0.6325 µM) | relative viability ([1]; first compound 2 µM) | relative viability ([2]; first compound 0.005 µM) | relative viability ([2]; first compound 0.01581 µM) | relative viability ([2]; first compound 0.05 µM) | relative viability ([2]; first compound 0.1581 µM) | relative viability ([2]; first compound 0.5 µM) | relative viability ([3]; first compound 0.02 µM) | relative viability ([3]; first compound 0.06325 µM) | relative viability ([3]; first compound 0.2 µM) | relative viability ([3]; first compound 2 µM) | relative viability ([4]; first compound 0.005 µM) | relative viability ([4]; first compound 0.01581 µM) | relative viability ([4]; first compound 0.05 µM) | relative viability ([4]; first compound 0.1581 µM) | relative viability ([4]; first compound 0.5 µM) |
| --- | --- | --- | --- | --- | --- | --- | --- | --- | --- | --- | --- | --- | --- | --- | --- | --- | --- | --- |
| HCC-827 | 1.11 | 1.09 | 1.16 | 1.11 | 0.408 | 0.358 | 0.304 | 0.431 | 0.181 | 0.275 | 0.259 | 0.256 | 0.256 | 0.727 | 0.67 | 0.648 | 0.783 | 0.45 |
| HOP-62 | 0.934 | 0.851 | 0.769 | 0.6 | 0.759 | 0.621 | 0.696 | 0.724 | 0.804 | 0.356 | 0.267 | 0.312 | 0.34 | 0.689 | 0.733 | 0.832 | 0.982 | 0.924 |
| IA-LM | 0.884 | 0.928 | 0.984 | 0.884 | – | – | – | – | – | – | – | – | – | – | – | – | – | – |
| LC-2-ad | 1.02 | 1.28 | 1.01 | 1.04 | 0.552 | 0.579 | 0.56 | 0.478 | 0.531 | 0.26 | 0.296 | 0.265 | 0.27 | 0.741 | 0.746 | 0.797 | 0.792 | 0.752 |
| LCLC-97TM1 | 0.332 | 0.562 | 0.629 | 0.505 | 0.452 | 0.457 | 0.449 | 0.504 | 0.411 | 0.184 | 0.177 | – | 0.191 | 0.586 | 0.425 | 0.558 | 0.487 | 0.483 |
| LCLC-103H | 1.11 | 0.972 | 1.25 | 0.932 | 0.334 | 0.282 | 0.3 | 0.369 | 0.275 | 0.468 | 0.419 | 0.436 | 0.451 | 0.459 | 0.409 | 0.485 | 0.393 | 0.485 |
| LK-2 | – | – | – | – | – | 0.529 | 0.396 | 0.357 | 0.282 | 0.238 | 0.244 | 0.246 | 0.321 | 0.151 | 0.203 | 0.203 | 0.174 | 0.212 |
| LOU-NH91 | – | 0.512 | 0.459 | 0.49 | 0.59 | 0.642 | 0.557 | 0.711 | 0.45 | 0.368 | 0.365 | 0.379 | 0.39 | 0.586 | 0.617 | 0.555 | 0.659 | 0.448 |
| LU99A | 1.2 | 1.18 | 1.2 | 1.12 | 0.889 | 0.8 | 0.837 | 1.05 | 0.846 | 0.192 | 0.162 | 0.182 | 0.177 | 0.245 | 0.254 | 0.323 | 0.32 | 0.288 |
| LXF-289 | 1.09 | 1.16 | 1.11 | 1.05 | 0.537 | 0.472 | 0.515 | 0.465 | 0.497 | 0.857 | 0.859 | 0.873 | 0.916 | 0.762 | 0.722 | 0.771 | 0.702 | 0.695 |
| NCI-H23 | 1.23 | 1.46 | 1.18 | 1.06 | 0.674 | 0.777 | 0.789 | 0.861 | 0.797 | 0.623 | 0.705 | 0.817 | 0.775 | 0.331 | 0.562 | 0.681 | 0.57 | 0.607 |
| NCI-H358 | – | – | – | – | 0.23 | – | 0.178 | 0.202 | 0.174 | 0.165 | 0.161 | 0.187 | 0.183 | 0.486 | – | 0.378 | 0.488 | 0.211 |
| NCI-H522 | – | – | – | – | 0.627 | 0.545 | 0.688 | 0.582 | 0.622 | 0.945 | 0.902 | 1.08 | 0.955 | 0.656 | 0.693 | 0.692 | 0.597 | 0.648 |
| NCI-H727 | 1 | 0.869 | 1.05 | 0.939 | – | 0.612 | 0.546 | – | 0.401 | – | – | – | – | 0.506 | 0.591 | 0.674 | – | 0.577 |
| NCI-H1299 | 0.968 | 1.08 | 1.13 | 0.97 | – | – | – | – | – | – | – | – | – | – | – | – | – | – |
| NCI-H1395 | – | – | – | – | 0.281 | 0.404 | 0.468 | 0.442 | 0.405 | 0.868 | 0.799 | 0.781 | 0.923 | 0.602 | 0.617 | 0.612 | 0.5 | 0.781 |
| NCI-H1623 | – | – | – | – | 0.571 | 0.532 | 0.509 | 0.347 | 0.27 | – | – | – | – | 0.42 | 0.403 | 0.32 | 0.42 | 0.313 |
| NCI-H1648 | – | – | – | – | – | – | – | – | – | 0.676 | 0.838 | 0.81 | 0.646 | 0.243 | 0.288 | 0.278 | 0.256 | 0.306 |
| NCI-H1703 | 0.257 | 0.329 | 0.337 | 0.242 | – | – | – | – | – | – | – | – | – | – | – | – | – | – |
| NCI-H1793 | – | – | – | – | – | 0.313 | 0.281 | 0.318 | 0.282 | 0.811 | 0.952 | 0.835 | 0.837 | – | 0.238 | 0.243 | 0.207 | 0.219 |
| NCI-H1944 | – | – | – | – | 0.202 | 0.176 | 0.195 | 0.177 | 0.182 | 0.595 | 0.65 | 0.623 | 0.627 | 0.331 | 0.33 | 0.329 | 0.339 | 0.331 |
| NCI-H2170 | – | – | – | – | 0.431 | 0.42 | 0.395 | 0.39 | 0.36 | 0.259 | 0.252 | 0.257 | 0.278 | 0.48 | 0.587 | 0.459 | 0.822 | 0.272 |
| NCI-H2342 | – | – | – | – | 0.472 | 0.56 | 0.57 | 0.455 | 0.452 | 0.851 | 0.754 | 0.727 | 0.781 | 0.462 | 0.566 | 0.494 | 0.532 | 0.505 |
| SW 900 | – | – | – | – | – | – | 0.588 | 0.669 | 0.618 | – | 0.456 | 0.456 | 0.531 | – | – | 0.532 | 0.442 | 0.62 |
